Calls of active or inactive are those of the source. No cut-off for these calls is given here.
Columns and labels:
Rattus norvegicus [1] = experiment: Antiarthritic activity in MSU-induced acute gouty arthritis Sprague-Dawley rat model assessed as reduction in ankle swelling by measuring perimeter of ankle at 2.5 mg/kg, po qd pretreated via gavage for 5 days followed by MSU treatment at 1 hr post last dose measured after 8 hrs (reference value: 3.27 +/- 0.56 cm); assay type: functional
Rattus norvegicus [2] = experiment: Inhibition of MSU-induced TNFalpha level in serum of acute gouty arthritis Sprague-Dawley rat model at 2.5 to 10 mg/kg, po qd pretreated via gavage for 5 days followed by MSU treatment at 1 hr post last dose measured up to 24 hrs by ELISA; assay type: functional, organism-based
[3] = target: NACHT, LRR and PYD domains-containing protein 3 (Homo sapiens, UniProt Q96P20); experiment: Inhibition of NLRP3 inflammasome in human THP1 cells assessed as reduction in MSU-induced IL-1beta production preincubated for 1 hr followed by MSU stimulation measured after 6 hrs; assay type: cell-based
Mus musculus [4] = experiment: Hypouricemic effect in Kunming mouse assessed as inhibition of hepatic XOD activity at 10 mg/kg, po measured after 1 hr relative to control; assay type: organism-based
[5] = target: T1, Xanthine dehydrogenase/oxidase (Homo sapiens, UniProt P47989); experiment: Inhibition of Xanthine oxidase (unknown origin) using xanthine as substrate preincubated for 1 to 5 mins followed by substrate addition
Rattus norvegicus [6] = experiment: Inhibition of MSU-induced phosphorylated IkappaB protein level in synovial homogenate of acute gouty arthritis Sprague-Dawley rat model at 2.5 to 10 mg/kg, po qd pretreated via gavage for 5 days followed by MSU treatment at 1 hr post last dose measured up to 24 hrs by Western blot method; assay type: functional, organism-based
Rattus norvegicus [7] = experiment: Inhibition of MSU-induced ASC protein level in synovial homogenate of acute gouty arthritis Sprague-Dawley rat model at 2.5 to 10 mg/kg, po qd pretreated via gavage for 5 days followed by MSU treatment at 1 hr post last dose measured up to 24 hrs by Western blot method; assay type: functional, organism-based
Mus musculus [8] = experiment: Hypouricemic effect in Kunming mouse assessed as inhibition of hepatic XOD activity at 2.5 mg/kg, po measured after 1 hr relative to control; assay type: organism-based
Rattus norvegicus [9] = experiment: Inhibition of MSU-induced caspase-1 protein level in synovial homogenate of acute gouty arthritis Sprague-Dawley rat model at 2.5 to 10 mg/kg, po qd pretreated via gavage for 5 days followed by MSU treatment at 1 hr post last dose measured up to 24 hrs by Western blot method; assay type: functional, organism-based
Rattus norvegicus [10] = experiment: Antiarthritic activity in MSU-induced acute gouty arthritis Sprague-Dawley rat model assessed as reduction in ankle swelling by measuring perimeter of ankle at 10 mg/kg, po qd pretreated via gavage for 5 days followed by MSU treatment at 1 hr post last dose measured after 4 hrs (reference value: 3.18 +/- 0.64 cm); assay type: functional
Rattus norvegicus [11] = experiment: Antiarthritic activity in MSU-induced acute gouty arthritis Sprague-Dawley rat model assessed as reduction in ankle swelling by measuring perimeter of ankle at 5 mg/kg, po qd pretreated via gavage for 5 days followed by MSU treatment at 1 hr post last dose measured after 24 hrs (reference value: 3.35 +/- 0.5 cm); assay type: functional
Rattus norvegicus [12] = experiment: Antiarthritic activity in MSU-induced acute gouty arthritis Sprague-Dawley rat model assessed as reduction in ankle swelling by measuring perimeter of ankle at 2.5 mg/kg, po qd pretreated via gavage for 5 days followed by MSU treatment at 1 hr post last dose measured after 4 hrs (reference value: 3.18 +/- 0.64 cm); assay type: functional
Rattus norvegicus [13] = experiment: Inhibition of MSU-induced IL-1beta level in synovial homogenate of acute gouty arthritis Sprague-Dawley rat model at 2.5 to 10 mg/kg, po qd pretreated via gavage for 5 days followed by MSU treatment at 1 hr post last dose measured up to 24 hrs by ELISA; assay type: functional, organism-based
Mus musculus [14] = experiment: In vivo inhibition of XOD activity in liver of Kunming mouse model of potassium oxonate-induced hyperuricemia at 10 mg/kg, po treated 1 hr post potassium oxonate addition measured after 1 hr relative to control; assay type: functional
Mus musculus [15] = experiment: In vivo inhibition of XOD activity in liver of Kunming mouse model of potassium oxonate-induced hyperuricemia at 5 mg/kg, po treated 1 hr post potassium oxonate addition measured after 1 hr relative to control; assay type: functional
Mus musculus [16] = experiment: In vivo inhibition of XOD activity in liver of Kunming mouse model of potassium oxonate-induced hyperuricemia at 2.5 mg/kg, po treated 1 hr post potassium oxonate addition measured after 1 hr relative to control; assay type: functional
Rattus norvegicus [17] = experiment: Antiarthritic activity in MSU-induced acute gouty arthritis Sprague-Dawley rat model assessed as reduction in ankle swelling by measuring perimeter of ankle at 10 mg/kg, po qd pretreated via gavage for 5 days followed by MSU treatment at 1 hr post last dose measured immediately (reference value: 2.64 +/- 0.81 cm); assay type: functional
Rattus norvegicus [18] = experiment: Antiarthritic activity in MSU-induced acute gouty arthritis Sprague-Dawley rat model assessed as reduction in ankle swelling by measuring perimeter of ankle at 5 mg/kg, po qd pretreated via gavage for 5 days followed by MSU treatment at 1 hr post last dose measured immediately (reference value: 2.64 +/- 0.81 cm); assay type: functional
Rattus norvegicus [19] = experiment: Inhibition of MSU-induced IL-1beta level in serum of acute gouty arthritis Sprague-Dawley rat model at 2.5 to 10 mg/kg, po qd pretreated via gavage for 5 days followed by MSU treatment at 1 hr post last dose measured up to 24 hrs by ELISA; assay type: functional, organism-based
Rattus norvegicus [20] = experiment: Antiarthritic activity in po dosed MSU-induced acute gouty arthritis Sprague-Dawley rat model assessed as reduction in ankle swelling pretreated qd via gavage for 5 days followed by MSU treatment at 1 hr post last dose measured after 24 hrs; assay type: functional, organism-based
Toll-like receptor 4 = Toll-like receptor 4 (Homo sapiens, UniProt O00206); experiment: Inhibition of human TLR4 signaling expressed in HEK-Blue cells co-expressing MD2/CD14 assessed as reduction in LPS-induced NF-kappaB activation-mediated SEAP production preincubated for 2 hrs followed by LPS stimulation for 20 hrs by colorimetric assay; assay type: cell-based
Mus musculus [21] = experiment: In vivo inhibition of XOD activity in liver of Kunming mouse model of potassium oxonate-induced hyperuricemia administered po 1 hr post potassium oxonate addition measured after 1 hr; assay type: functional, organism-based
Rattus norvegicus [22] = experiment: Antiarthritic activity in MSU-induced acute gouty arthritis Sprague-Dawley rat model assessed as reduction in ankle swelling by measuring perimeter of ankle at 2.5 mg/kg, po qd pretreated via gavage for 5 days followed by MSU treatment at 1 hr post last dose measured after 24 hrs (reference value: 3.35 +/- 0.5 cm); assay type: functional
[23] = target: T1, Xanthine dehydrogenase/oxidase; experiment: Competitive inhibition of Xanthine oxidase (unknown origin) using xanthine as substrate preincubated for 1 to 5 mins followed by substrate addition by Lineweaver-Burk plot analysis
Rattus norvegicus [24] = experiment: Inhibition of MSU-induced NLRP3 protein level in synovial homogenate of acute gouty arthritis Sprague-Dawley rat model at 2.5 to 10 mg/kg, po qd pretreated via gavage for 5 days followed by MSU treatment at 1 hr post last dose measured up to 24 hrs by Western blot method; assay type: functional, organism-based
Rattus norvegicus [25] = experiment: Antiarthritic activity in MSU-induced acute gouty arthritis Sprague-Dawley rat model assessed as reduction in ankle swelling by measuring perimeter of ankle at 10 mg/kg, po qd pretreated via gavage for 5 days followed by MSU treatment at 1 hr post last dose measured after 8 hrs (reference value: 3.27 +/- 0.56 cm); assay type: functional

T1 sequence (P47989 whole entry): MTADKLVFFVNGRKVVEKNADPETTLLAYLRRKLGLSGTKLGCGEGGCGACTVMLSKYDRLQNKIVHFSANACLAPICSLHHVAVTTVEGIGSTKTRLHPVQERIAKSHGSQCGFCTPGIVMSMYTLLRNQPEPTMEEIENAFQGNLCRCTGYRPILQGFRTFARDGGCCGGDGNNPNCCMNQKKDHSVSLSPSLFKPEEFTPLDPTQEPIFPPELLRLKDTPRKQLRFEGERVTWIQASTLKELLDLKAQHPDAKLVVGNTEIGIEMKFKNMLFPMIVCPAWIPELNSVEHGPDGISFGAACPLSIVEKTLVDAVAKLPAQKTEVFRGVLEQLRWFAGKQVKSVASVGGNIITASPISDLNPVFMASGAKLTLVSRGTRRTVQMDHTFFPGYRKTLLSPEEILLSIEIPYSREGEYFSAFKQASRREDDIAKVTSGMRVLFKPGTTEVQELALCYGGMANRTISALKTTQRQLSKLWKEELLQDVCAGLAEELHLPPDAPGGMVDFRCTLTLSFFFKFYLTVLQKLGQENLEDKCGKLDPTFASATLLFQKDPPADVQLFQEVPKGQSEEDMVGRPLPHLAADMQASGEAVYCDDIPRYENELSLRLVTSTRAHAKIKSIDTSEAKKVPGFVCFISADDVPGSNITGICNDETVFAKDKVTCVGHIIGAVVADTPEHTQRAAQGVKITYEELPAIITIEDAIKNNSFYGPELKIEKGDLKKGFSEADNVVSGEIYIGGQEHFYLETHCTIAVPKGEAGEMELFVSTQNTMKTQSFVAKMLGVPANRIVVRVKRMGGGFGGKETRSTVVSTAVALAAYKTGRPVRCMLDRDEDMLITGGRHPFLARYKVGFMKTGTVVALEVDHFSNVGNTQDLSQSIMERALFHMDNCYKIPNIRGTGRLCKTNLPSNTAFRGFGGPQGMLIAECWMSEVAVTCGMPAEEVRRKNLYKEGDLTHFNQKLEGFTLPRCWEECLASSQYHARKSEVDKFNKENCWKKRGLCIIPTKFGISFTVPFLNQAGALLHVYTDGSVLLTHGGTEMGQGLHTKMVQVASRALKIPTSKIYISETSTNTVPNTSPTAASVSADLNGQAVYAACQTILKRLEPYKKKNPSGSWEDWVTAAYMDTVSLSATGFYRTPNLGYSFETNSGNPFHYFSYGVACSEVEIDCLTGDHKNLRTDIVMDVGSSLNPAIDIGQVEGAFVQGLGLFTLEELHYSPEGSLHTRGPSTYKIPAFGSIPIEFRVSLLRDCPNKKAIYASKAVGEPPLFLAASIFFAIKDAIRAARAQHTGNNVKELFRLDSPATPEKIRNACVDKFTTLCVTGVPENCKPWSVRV
Toll-like receptor 4, sequence (O00206 whole entry): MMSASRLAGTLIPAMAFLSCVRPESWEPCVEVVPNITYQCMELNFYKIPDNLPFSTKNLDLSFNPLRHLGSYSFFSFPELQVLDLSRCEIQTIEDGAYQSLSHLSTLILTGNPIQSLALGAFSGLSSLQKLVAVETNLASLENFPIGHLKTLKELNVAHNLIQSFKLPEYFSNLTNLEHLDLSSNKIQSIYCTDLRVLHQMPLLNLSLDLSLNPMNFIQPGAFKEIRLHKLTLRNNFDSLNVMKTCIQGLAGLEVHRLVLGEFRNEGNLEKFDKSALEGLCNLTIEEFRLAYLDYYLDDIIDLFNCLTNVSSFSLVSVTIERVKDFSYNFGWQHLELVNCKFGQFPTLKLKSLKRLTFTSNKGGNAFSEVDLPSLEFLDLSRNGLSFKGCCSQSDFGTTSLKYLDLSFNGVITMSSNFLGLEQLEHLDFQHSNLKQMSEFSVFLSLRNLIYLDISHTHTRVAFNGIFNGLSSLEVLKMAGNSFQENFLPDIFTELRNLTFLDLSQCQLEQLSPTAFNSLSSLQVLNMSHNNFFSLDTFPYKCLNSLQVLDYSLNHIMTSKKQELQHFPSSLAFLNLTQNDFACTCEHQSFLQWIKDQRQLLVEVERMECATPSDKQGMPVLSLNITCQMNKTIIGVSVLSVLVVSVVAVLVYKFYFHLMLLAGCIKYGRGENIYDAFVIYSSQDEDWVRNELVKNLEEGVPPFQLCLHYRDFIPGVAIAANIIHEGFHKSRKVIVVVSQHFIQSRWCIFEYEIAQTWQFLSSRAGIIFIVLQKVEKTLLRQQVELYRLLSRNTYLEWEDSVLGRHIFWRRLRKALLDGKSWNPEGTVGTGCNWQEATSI
NACHT, LRR and PYD domains-containing protein 3, sequence (Q96P20 whole entry, the tested form may be a part): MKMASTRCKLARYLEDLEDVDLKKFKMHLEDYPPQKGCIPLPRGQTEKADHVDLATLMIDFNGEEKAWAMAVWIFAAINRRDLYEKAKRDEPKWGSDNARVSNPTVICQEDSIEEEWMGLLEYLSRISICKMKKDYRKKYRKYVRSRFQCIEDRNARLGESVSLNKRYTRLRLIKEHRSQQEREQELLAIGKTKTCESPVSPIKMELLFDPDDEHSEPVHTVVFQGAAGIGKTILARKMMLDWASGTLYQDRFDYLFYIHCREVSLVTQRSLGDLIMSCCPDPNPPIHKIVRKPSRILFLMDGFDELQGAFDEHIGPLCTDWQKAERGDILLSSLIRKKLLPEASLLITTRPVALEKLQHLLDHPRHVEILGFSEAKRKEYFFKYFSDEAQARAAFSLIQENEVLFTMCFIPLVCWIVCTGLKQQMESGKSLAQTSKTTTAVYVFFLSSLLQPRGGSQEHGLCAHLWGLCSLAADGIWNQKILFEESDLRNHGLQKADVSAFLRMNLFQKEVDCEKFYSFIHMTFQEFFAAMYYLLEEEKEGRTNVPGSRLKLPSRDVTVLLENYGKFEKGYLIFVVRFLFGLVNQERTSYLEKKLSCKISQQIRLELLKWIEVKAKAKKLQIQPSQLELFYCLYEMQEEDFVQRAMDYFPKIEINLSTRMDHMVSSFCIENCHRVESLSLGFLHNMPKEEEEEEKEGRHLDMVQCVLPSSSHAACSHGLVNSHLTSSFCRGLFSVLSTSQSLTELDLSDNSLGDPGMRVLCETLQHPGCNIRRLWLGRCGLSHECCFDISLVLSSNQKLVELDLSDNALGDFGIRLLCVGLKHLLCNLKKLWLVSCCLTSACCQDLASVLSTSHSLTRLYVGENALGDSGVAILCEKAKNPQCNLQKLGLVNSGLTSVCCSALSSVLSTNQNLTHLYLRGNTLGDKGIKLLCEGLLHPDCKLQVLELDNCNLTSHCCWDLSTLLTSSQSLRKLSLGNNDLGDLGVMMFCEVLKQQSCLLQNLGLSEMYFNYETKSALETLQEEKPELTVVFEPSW

`COc1ccc(C/C(=N\O)c2nc3ccc(OC)cc3o2)cc1` was tested, and the Activity (Rattus norvegicus [1]) was 2.96 cm, the inhibition (Rattus norvegicus [2]) was “Active” and the IC50 [3] was 1220 nM. The inhibition at 10 mg/kg (Mus musculus [4]) was 10.2%, the IC50 [5] was 3700 nM and the inhibition (Rattus norvegicus [6]) was “Active”. For the same compound, the inhibition (Rattus norvegicus [7]) was “Active”, the inhibition at 2.5 mg/kg (Mus musculus [8]) was 3.7% and the inhibition (Rattus norvegicus [9]) was “Active”. It also gave an Activity (Rattus norvegicus [10]) of 2.79 cm, an Activity (Rattus norvegicus [11]) of 2.8 cm and an Activity (Rattus norvegicus [12]) of 2.95 cm. The inhibition (Rattus norvegicus [13]) was “Active”, the inhibition in vivo at 10 mg/kg (Mus musculus [14]) was 41.9% and the inhibition in vivo at 5 mg/kg (Mus musculus [15]) was 35.8%. It also gave an inhibition in vivo at 2.5 mg/kg (Mus musculus [16]) of 19.2%, an Activity (Rattus norvegicus [17]) of 2.56 cm and an Activity (Rattus norvegicus [18]) of 2.7 cm. The inhibition (Rattus norvegicus [19]) was “Active”, the Activity (Rattus norvegicus [20]) was “Dose-dependent effect” and the IC50 (Toll-like receptor 4) was 540 nM. For the same compound, the inhibition (Mus musculus [21]) was “Dose-dependent effect”, the Activity (Rattus norvegicus [22]) was 2.97 cm and the Ki [23] was 2890 nM. For the same compound, the inhibition (Rattus norvegicus [24]) was “Active” and the Activity (Rattus norvegicus [25]) was 2.72 cm.

— ChEMBL document CHEMBL4219086, “Development of benzoxazole deoxybenzoin oxime and acyloxylamine derivatives targeting innate immune sensors and xanthine oxidase for treatment of gout” (Bioorg Med Chem, 2018)
